These results are taken from US20100249145A1, “Inhibitors of VEGF Receptor and HGF Receptor Signaling” (Methylgene, Inc., priority 2005, published 2010).

Usually IC50 stands for the concentration that inhibits the measured activity by half.

T2 sequence (P35968 806-1356): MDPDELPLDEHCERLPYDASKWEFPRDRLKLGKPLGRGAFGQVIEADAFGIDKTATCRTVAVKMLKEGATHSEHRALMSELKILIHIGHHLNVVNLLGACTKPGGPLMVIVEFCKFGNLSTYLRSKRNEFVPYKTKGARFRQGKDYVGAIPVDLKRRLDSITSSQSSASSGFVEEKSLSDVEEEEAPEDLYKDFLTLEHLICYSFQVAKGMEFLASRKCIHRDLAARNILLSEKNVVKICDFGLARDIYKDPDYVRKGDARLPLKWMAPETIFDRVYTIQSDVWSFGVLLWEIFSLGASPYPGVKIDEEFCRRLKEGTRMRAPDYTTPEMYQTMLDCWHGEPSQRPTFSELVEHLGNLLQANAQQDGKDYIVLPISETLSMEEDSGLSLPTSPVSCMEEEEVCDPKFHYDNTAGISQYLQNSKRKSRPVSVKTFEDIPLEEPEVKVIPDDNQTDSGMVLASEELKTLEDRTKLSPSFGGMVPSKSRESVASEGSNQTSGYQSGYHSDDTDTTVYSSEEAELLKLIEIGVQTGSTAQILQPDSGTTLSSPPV

The target in the first assay is T1, recombinant human c-Met/HGF receptor (Homo sapiens, UniProt P08581).
T1 construct: His tag (histidine tag from pBlueBacHis2A); made in house; host or cells: Hi-5 cells (Trichoplusia ni), recombinant baculovirus
T1 sequence (P08581 1078-1337): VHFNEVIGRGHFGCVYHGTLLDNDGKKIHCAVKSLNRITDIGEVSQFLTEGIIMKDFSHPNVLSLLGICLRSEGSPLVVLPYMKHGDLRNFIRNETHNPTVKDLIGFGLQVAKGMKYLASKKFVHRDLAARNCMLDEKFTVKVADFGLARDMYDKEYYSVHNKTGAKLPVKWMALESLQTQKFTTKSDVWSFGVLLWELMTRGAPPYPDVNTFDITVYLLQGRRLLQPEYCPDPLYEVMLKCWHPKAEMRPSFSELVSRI
Nature of the assay: In vitro receptor tyrosine kinase assay (DELFIA), c-Met/HGF receptor. It counts as biochemical. Particulars: Table 31; ATP 10 uM, enzyme 25 nM; read-out: CMet ic50.
Regarding `CCn1cnc(-c2cc3nccc(Oc4ccc(NC(=S)NC(=O)Cc5ccccc5O)cc4F)c3s2)c1`, the IC50 was less than 50 nM.
Still for that read-out and setting: to `CCn1cncc1-c1cc2nccc(Oc3ccc(NC(=S)NC(=O)Cc4ccccc4OC)cc3F)c2s1` belongs less than 50 nM; to `Cc1ccccc1CC(=O)NC(=S)Nc1ccc(Oc2ccnc3cc(-c4cn(C)cn4)sc23)c(F)c1`, less than 50 nM.
`C#Cc1cccc(CC(=O)NC(=S)Nc2ccc(Oc3ccnc4cc(-c5cn(C)cn5)sc34)c(F)c2)c1`: the IC50 was less than 50 nM.
On the same count and under the same terms, to `C#Cc1ccc(CC(=O)NC(=S)Nc2ccc(Oc3ccnc4cc(-c5cn(CCN6CCCC6)cn5)sc34)c(F)c2)cc1` belongs 50 to 250 nM.
Consider `C#Cc1ccc(CC(=O)NC(=S)Nc2ccc(Oc3ccnc4cc(-c5ccc(CN6CCN(C)CC6)cc5)sc34)c(F)c2)cc1`, for which the IC50 lay in the range of 50 to 250 nM.
Same read-out and setting: to `C#Cc1ccc(CC(=O)NC(=S)Nc2ccc(Oc3ccnc4cc(-c5nccn5C)sc34)c(F)c2)cc1F` belongs 50 to 250 nM; to `C#Cc1ccc(F)c(CC(=O)NC(=S)Nc2ccc(Oc3ccnc4cc(-c5cn(C)cn5)sc34)c(F)c2)c1`, less than 50 nM; to `C#Cc1ccc(F)c(CC(=O)NC(=S)Nc2ccc(Oc3ccnc4cc(-c5nccn5C)sc34)c(F)c2)c1`, less than 50 nM.
On to `C#Cc1cc(F)ccc1CC(=O)NC(=S)Nc1ccc(Oc2ccnc3cc(-c4cn(C)cn4)sc23)c(F)c1`, for which the IC50 is less than 50 nM.
Consider `C#Cc1cc(F)ccc1CC(=O)NC(=S)Nc1ccc(Oc2ccnc3cc(-c4cn(CC)cn4)sc23)c(F)c1`, for which the IC50 is less than 50 nM.
`C#Cc1ccc(CC(=O)NC(=S)Nc2ccc(Oc3ccnc4cc(-c5cn(CC)cn5)sc34)c(F)c2)cc1F`: the IC50 fell in the range of 50 to 250 nM.
Still for that read-out and setting: for `C#Cc1cc(F)ccc1CC(=O)NC(=S)Nc1ccc(Oc2ccnc3cc(-c4nccn4C)sc23)c(F)c1` the value was less than 50 nM; for `C#Cc1cc2nccc(Oc3ccc(NC(=S)NC(=O)Cc4ccccc4)cc3F)c2s1`, 50 to 250 nM; for `CNC(=O)N1CCN(Cc2ccc(-c3cc4nccc(Oc5ccc(NC(=S)NC(=O)Cc6ccccc6)cc5F)c4s3)cc2)CC1`, less than 50 nM.

A further assay addresses T2, VEGF receptor KDR (Homo sapiens, UniProt P35968).
T2 construct: made in house; host or cells: Sf9 cells (Spodoptera frugiperda), recombinant baculovirus
Description: In vitro receptor tyrosine kinase assay (DELFIA), VEGF receptor KDR. Type of assay: biochemical. Particulars: Table 31; ATP 0.6 uM, enzyme 5 nM; read-out: VEGFR IC50. From the text: In Vitro Receptor Tyrosine Kinase Assays (c-Met/HGF receptor and VEGF Receptor KDR)
In the case of VEGF receptor KDR a 1.6-kb cDNA corresponding to the catalytic domain of VEGFR2 or KDR (Genbank accession number AF035121 amino acid 806 to 1356) was cloned into the Pst I site of the pDEST20 Gateway vector (Invitrogen) for the production of a GST-tagged version of that enzyme.
The GST-VEGFR2806-1356 protein was expressed in Sf9 cells (Spodoptera frugiperda) upon infection with recombinant baculovirus construct.
The supernatant was loaded onto a GST-agarose column (Sigma) equilibrated with PBS pH 7.3. Following a four column volume (CV) wash with PBS pH 7.3+1% Triton X-100 and 4 CV wash with buffer B (50 mM Tris pH 8.0, 20% glycerol and 100 mM NaCl), bound proteins were step eluted with 5 CV of buffer B supplemented with 5 mM DTT and 15 mM glutathion. […] Final GST-VEGFR2806-1356 protein preparations concentrations were about 0.7 mg/ml with purity approximating 70%.
Regarding `CCn1cnc(-c2cc3nccc(Oc4ccc(NC(=S)NC(=O)Cc5ccccc5O)cc4F)c3s2)c1`, the IC50 was less than 50 nM.
Consider `Cc1ccccc1CC(=O)NC(=S)Nc1ccc(Oc2ccnc3cc(-c4cn(C)cn4)sc23)c(F)c1`, for which the IC50 was less than 50 nM.
As to `C#Cc1cccc(CC(=O)NC(=S)Nc2ccc(Oc3ccnc4cc(-c5cn(C)cn5)sc34)c(F)c2)c1`, the IC50 is less than 50 nM.
With `C#Cc1ccc(CC(=O)NC(=S)Nc2ccc(Oc3ccnc4cc(-c5cn(CCN6CCCC6)cn5)sc34)c(F)c2)cc1`, the IC50 is less than 50 nM.
Same read-out and setting: for `C#Cc1ccc(CC(=O)NC(=S)Nc2ccc(Oc3ccnc4cc(-c5ccc(CN6CCN(C)CC6)cc5)sc34)c(F)c2)cc1` the value was less than 50 nM; for `C#Cc1ccc(CC(=O)NC(=S)Nc2ccc(Oc3ccnc4cc(-c5nccn5C)sc34)c(F)c2)cc1F`, less than 50 nM.
Consider `C#Cc1ccc(F)c(CC(=O)NC(=S)Nc2ccc(Oc3ccnc4cc(-c5cn(C)cn5)sc34)c(F)c2)c1`, for which the IC50 is less than 50 nM.
Regarding `C#Cc1ccc(F)c(CC(=O)NC(=S)Nc2ccc(Oc3ccnc4cc(-c5nccn5C)sc34)c(F)c2)c1`, the IC50 is less than 50 nM.
For the compound `C#Cc1cc(F)ccc1CC(=O)NC(=S)Nc1ccc(Oc2ccnc3cc(-c4cn(C)cn4)sc23)c(F)c1`, the IC50 was less than 50 nM.
Turning to `C#Cc1cc(F)ccc1CC(=O)NC(=S)Nc1ccc(Oc2ccnc3cc(-c4cn(CC)cn4)sc23)c(F)c1`, the IC50 is less than 50 nM.
For the compound `C#Cc1ccc(CC(=O)NC(=S)Nc2ccc(Oc3ccnc4cc(-c5cn(CC)cn5)sc34)c(F)c2)cc1F`, the IC50 was less than 50 nM.
For the compound `C#Cc1cc(F)ccc1CC(=O)NC(=S)Nc1ccc(Oc2ccnc3cc(-c4nccn4C)sc23)c(F)c1`, the IC50 was less than 50 nM.
The same measure, in the same setting: for `C#Cc1cc2nccc(Oc3ccc(NC(=S)NC(=O)Cc4ccccc4)cc3F)c2s1` the value was greater than 500 nM; for `CNC(=O)N1CCN(Cc2ccc(-c3cc4nccc(Oc5ccc(NC(=S)NC(=O)Cc6ccccc6)cc5F)c4s3)cc2)CC1`, less than 50 nM.

Another assay deals with A549. Description: A549 wound healing inhibition (HGF dependent migration). Type of assay: cell-based. Particulars: Homo sapiens, Table 31, read-out: A549 wound healing inbib IC50. The source says: (§1) HGF has well known activity in terms of inducing scattering and migration (wound healing) (Wells et al., Cell Motil Cytoskeleton. 2005 November 62(3):180-94; Miura et al., Urology 2001 December 58(6):1064-9; Nishimura et al., Int J. Urol. 1998 May 5(3):276-81; Wang et al., Mol Cancer Ther. 2003 November; 2(11):1085-92; and Christensen et al., Cancer Res. 2003 Nov. 1; 63(21):7345-55).
For the compound `CCn1cnc(-c2cc3nccc(Oc4ccc(NC(=S)NC(=O)Cc5ccccc5O)cc4F)c3s2)c1`, the IC50 was in the range of 1000 to 5000 nM.
Turning to `CCn1cncc1-c1cc2nccc(Oc3ccc(NC(=S)NC(=O)Cc4ccccc4OC)cc3F)c2s1`, the IC50 is 1000 to 5000 nM.
On the same count and under the same terms, for `Cc1ccccc1CC(=O)NC(=S)Nc1ccc(Oc2ccnc3cc(-c4cn(C)cn4)sc23)c(F)c1` the value was less than 1000 nM.
Take `C#Cc1cccc(CC(=O)NC(=S)Nc2ccc(Oc3ccnc4cc(-c5cn(C)cn5)sc34)c(F)c2)c1`: the IC50 was in the range of 1000 to 5000 nM.
On the same count and under the same terms, for `C#Cc1ccc(CC(=O)NC(=S)Nc2ccc(Oc3ccnc4cc(-c5cn(CCN6CCCC6)cn5)sc34)c(F)c2)cc1` the value was greater than 10000 nM; for `C#Cc1ccc(CC(=O)NC(=S)Nc2ccc(Oc3ccnc4cc(-c5ccc(CN6CCN(C)CC6)cc5)sc34)c(F)c2)cc1`, greater than 10000 nM.
As for `C#Cc1ccc(CC(=O)NC(=S)Nc2ccc(Oc3ccnc4cc(-c5nccn5C)sc34)c(F)c2)cc1F`, the IC50 is less than 1000 nM.
Regarding `C#Cc1ccc(F)c(CC(=O)NC(=S)Nc2ccc(Oc3ccnc4cc(-c5cn(C)cn5)sc34)c(F)c2)c1`, the IC50 was 1000 to 5000 nM.
`C#Cc1ccc(F)c(CC(=O)NC(=S)Nc2ccc(Oc3ccnc4cc(-c5nccn5C)sc34)c(F)c2)c1`: the IC50 was 1000 to 5000 nM.
Regarding `C#Cc1cc(F)ccc1CC(=O)NC(=S)Nc1ccc(Oc2ccnc3cc(-c4cn(C)cn4)sc23)c(F)c1`, the IC50 is less than 1000 nM.
With `C#Cc1cc(F)ccc1CC(=O)NC(=S)Nc1ccc(Oc2ccnc3cc(-c4cn(CC)cn4)sc23)c(F)c1`, the IC50 is less than 1000 nM.
With `C#Cc1ccc(CC(=O)NC(=S)Nc2ccc(Oc3ccnc4cc(-c5cn(CC)cn5)sc34)c(F)c2)cc1F`, the IC50 was greater than 10000 nM.
In the case of `C#Cc1cc(F)ccc1CC(=O)NC(=S)Nc1ccc(Oc2ccnc3cc(-c4nccn4C)sc23)c(F)c1`, the 50% inhibitory concentration (IC50) was less than 1000 nM.
For the compound `C#Cc1cc2nccc(Oc3ccc(NC(=S)NC(=O)Cc4ccccc4)cc3F)c2s1`, the IC50 is greater than 10000 nM.
Still for that read-out and setting: to `CNC(=O)N1CCN(Cc2ccc(-c3cc4nccc(Oc5ccc(NC(=S)NC(=O)Cc6ccccc6)cc5F)c4s3)cc2)CC1` belongs less than 1000 nM.

Another assay relates to DU145. Description: DU145 scattering inhibition (HGF dependent scattering). It counts as cell-based. Particulars: Homo sapiens, DU-145, Table 31, read-out: DU145 scattering inhib IC50.
Excerpt: as §1
As to `CCn1cnc(-c2cc3nccc(Oc4ccc(NC(=S)NC(=O)Cc5ccccc5O)cc4F)c3s2)c1`, the IC50 was 1000 to 5000 nM.
As to `CCn1cncc1-c1cc2nccc(Oc3ccc(NC(=S)NC(=O)Cc4ccccc4OC)cc3F)c2s1`, the IC50 is less than 1000 nM.
Still for that read-out and setting: for `C#Cc1cccc(CC(=O)NC(=S)Nc2ccc(Oc3ccnc4cc(-c5cn(C)cn5)sc34)c(F)c2)c1` the value was 1000 to 5000 nM.
`C#Cc1ccc(CC(=O)NC(=S)Nc2ccc(Oc3ccnc4cc(-c5cn(CCN6CCCC6)cn5)sc34)c(F)c2)cc1`: the IC50 is greater than 10000 nM.
On the same count and under the same terms, to `C#Cc1ccc(CC(=O)NC(=S)Nc2ccc(Oc3ccnc4cc(-c5ccc(CN6CCN(C)CC6)cc5)sc34)c(F)c2)cc1` belongs 1000 to 5000 nM.
Still for that read-out and setting: to `C#Cc1ccc(CC(=O)NC(=S)Nc2ccc(Oc3ccnc4cc(-c5nccn5C)sc34)c(F)c2)cc1F` belongs 1000 to 5000 nM.
With `C#Cc1ccc(F)c(CC(=O)NC(=S)Nc2ccc(Oc3ccnc4cc(-c5cn(C)cn5)sc34)c(F)c2)c1`, the concentration for half-maximal inhibition (IC50) is 1000 to 5000 nM.
Still for that read-out and setting: for `C#Cc1ccc(F)c(CC(=O)NC(=S)Nc2ccc(Oc3ccnc4cc(-c5nccn5C)sc34)c(F)c2)c1` the value was 1000 to 5000 nM; for `C#Cc1cc(F)ccc1CC(=O)NC(=S)Nc1ccc(Oc2ccnc3cc(-c4cn(C)cn4)sc23)c(F)c1`, less than 1000 nM.
With `C#Cc1cc(F)ccc1CC(=O)NC(=S)Nc1ccc(Oc2ccnc3cc(-c4cn(CC)cn4)sc23)c(F)c1`, the IC50 is less than 1000 nM.
`C#Cc1ccc(CC(=O)NC(=S)Nc2ccc(Oc3ccnc4cc(-c5cn(CC)cn5)sc34)c(F)c2)cc1F`: the IC50 was in the range of 1000 to 5000 nM.
Same read-out and setting: for `C#Cc1cc(F)ccc1CC(=O)NC(=S)Nc1ccc(Oc2ccnc3cc(-c4nccn4C)sc23)c(F)c1` the value was less than 1000 nM; for `C#Cc1cc2nccc(Oc3ccc(NC(=S)NC(=O)Cc4ccccc4)cc3F)c2s1`, 1000 to 5000 nM; for `CNC(=O)N1CCN(Cc2ccc(-c3cc4nccc(Oc5ccc(NC(=S)NC(=O)Cc6ccccc6)cc5F)c4s3)cc2)CC1`, less than 1000 nM.
